# Laboratory results reported in ChEMBL document CHEMBL1201862, “PubChem BioAssay data set” (2004).
#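 The compound was tested at five concentrations on cells cultured in 96-well plates, with a 48-hour exposure period. GI50 marks 50% less growth.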 Activity calls are given as the source filed them. Rule as the data show it: active = GI50 up to about 1.1 µM and inactive = higher.
# How the values were obtained:
# Experiment in all cases: NCI-60 cell line screen, 48 h
# 786-0 = tested on: 786-0
# A498 = tested on: A498
# A549 = tested on: A549
# ACHN = tested on: ACHN
# BT-549 = tested on: BT-549
# CAKI-1 = tested on: CAKI-1
# CCRF-CEM = tested on: CCRF-CEM
# COLO 205 = tested on: COLO 205
# DU-145 = tested on: DU-145
# EKVX = tested on: EKVX
# HCC 2998 = tested on: HCC 2998
# HCT-116 = tested on: HCT-116
# HCT-15 = tested on: HCT-15
# HOP-62 = tested on: HOP-62
# HT-29 = tested on: HT-29
# Hs-578T = tested on: Hs-578T
# K562 = tested on: K562
# KM12 = tested on: KM12
# LOX IMVI = tested on: LOX IMVI
# M14 = tested on: M14
# MCF7 = tested on: MCF7
# MDA-MB-231 = tested on: MDA-MB-231
# MDA-MB-435 = tested on: MDA-MB-435
# MDA-N = tested on: MDA-N
# MOLT-4 = tested on: MOLT-4
# Malme-3M = tested on: Malme-3M
# NCI-H226 = tested on: NCI-H226
# NCI-H23 = tested on: NCI-H23
# NCI-H460 = tested on: NCI-H460
# NCI/ADR-RES = tested on: NCI/ADR-RES
# OVCAR-3 = tested on: OVCAR-3
# OVCAR-4 = tested on: OVCAR-4
# OVCAR-5 = tested on: OVCAR-5
# OVCAR-8 = tested on: OVCAR-8
# PC-3 = tested on: PC-3
# RPMI-8226 = tested on: RPMI-8226
# SF-268 = tested on: SF-268
# SF-295 = tested on: SF-295
# SF-539 = tested on: SF-539
# SK-MEL-28 = tested on: SK-MEL-28
# SK-MEL-2 = tested on: SK-MEL-2
# SK-OV-3 = tested on: SK-OV-3
# SN12C = tested on: SN12C
# SNB-19 = tested on: SNB-19
# SNB-75 = tested on: SNB-75
# SW-620 = tested on: SW-620
# T47D = tested on: T47D
# U-251 = tested on: U-251
# UACC-257 = tested on: UACC-257
# UACC-62 = tested on: UACC-62
# UO-31 = tested on: UO-31
# HL-60 = tested on: HL-60
# HOP-92 = tested on: HOP-92
# IGROV-1 = tested on: IGROV-1
# NCI-H522 = tested on: NCI-H522
# RXF 393 = tested on: RXF 393
# SK-MEL-5 = tested on: SK-MEL-5
# TK-10 = tested on: TK-10
structure (smiles),measurement,setting,value
O=[N+]([O-])/C(C(Cl)=C(Cl)Cl)=C(\NCc1ccccc1)Sc1ccccc1,GI50,786-0,35.1 µM (inactive)
same,GI50,A498,25.9 µM (inactive)
same,GI50,A549,30.2 µM (inactive)
same,GI50,ACHN,35.7 µM (inactive)
same,GI50,BT-549,17.3 µM (inactive)
same,GI50,CAKI-1,37.3 µM (inactive)
same,GI50,CCRF-CEM,32 µM (inactive)
same,GI50,COLO 205,18.7 µM (inactive)
same,GI50,DU-145,36.6 µM (inactive)
same,GI50,EKVX,38.4 µM (inactive)
same,GI50,HCC 2998,34.9 µM (inactive)
same,GI50,HCT-116,32.4 µM (inactive)
same,GI50,HCT-15,17.3 µM
same,GI50,HOP-62,24 µM (inactive)
same,GI50,HT-29,38.9 µM (inactive)
same,GI50,Hs-578T,15.1 µM (inactive)
same,GI50,K562,63 µM (inactive)
same,GI50,KM12,16.5 µM (inactive)
same,GI50,LOX IMVI,13.7 µM (inactive)
same,GI50,M14,32.8 µM (inactive)
same,GI50,MCF7,32.4 µM (inactive)
same,GI50,MDA-MB-231,40.7 µM (inactive)
same,GI50,MDA-MB-435,19.4 µM (inactive)
same,GI50,MDA-N,31.7 µM (inactive)
same,GI50,MOLT-4,> 100 µM (inactive)
same,GI50,Malme-3M,16.8 µM (inactive)
same,GI50,NCI-H226,27.8 µM (inactive)
same,GI50,NCI-H23,20.5 µM (inactive)
same,GI50,NCI-H460,37 µM (inactive)
same,GI50,NCI/ADR-RES,24.5 µM (inactive)
same,GI50,OVCAR-3,17.6 µM (inactive)
same,GI50,OVCAR-4,28.6 µM (inactive)
same,GI50,OVCAR-5,47 µM (inactive)
same,GI50,OVCAR-8,16.9 µM (inactive)
same,GI50,PC-3,27.5 µM (inactive)
same,GI50,RPMI-8226,34.7 µM (inactive)
same,GI50,SF-268,24.3 µM (inactive)
same,GI50,SF-295,20.6 µM (inactive)
same,GI50,SF-539,19.9 µM (inactive)
same,GI50,SK-MEL-28,17.3 µM (inactive)
same,GI50,SK-MEL-2,25.1 µM (inactive)
same,GI50,SK-OV-3,34 µM (inactive)
same,GI50,SN12C,35.2 µM (inactive)
same,GI50,SNB-19,41.2 µM (inactive)
same,GI50,SNB-75,28.2 µM (inactive)
same,GI50,SW-620,18.4 µM (inactive)
same,GI50,T47D,30.8 µM (inactive)
same,GI50,U-251,32.3 µM (inactive)
same,GI50,UACC-257,33.9 µM (inactive)
same,GI50,UACC-62,30.4 µM (inactive)
same,GI50,UO-31,17.2 µM (inactive)
O=C1c2cccc3cccc(c23)C(=O)N1O,GI50,786-0,49.9 µM (inactive)
same,GI50,A498,> 100 µM (inactive)
same,GI50,A549,77.1 µM (inactive)
same,GI50,ACHN,71.8 µM (inactive)
same,GI50,BT-549,> 100 µM (inactive)
same,GI50,CAKI-1,49.8 µM (inactive)
same,GI50,CCRF-CEM,18.5 µM (inactive)
same,GI50,COLO 205,> 100 µM (inactive)
same,GI50,DU-145,53.6 µM (inactive)
same,GI50,EKVX,> 100 µM (inactive)
same,GI50,HCC 2998,75 µM (inactive)
same,GI50,HCT-116,27.4 µM (inactive)
same,GI50,HCT-15,40.9 µM
same,GI50,HL-60,> 100 µM (inactive)
same,GI50,HOP-92,25.7 µM (inactive)
same,GI50,HT-29,51.8 µM (inactive)
same,GI50,Hs-578T,53 µM (inactive)
same,GI50,IGROV-1,20.2 µM (inactive)
same,GI50,K562,36.7 µM (inactive)
same,GI50,KM12,45.4 µM (inactive)
same,GI50,LOX IMVI,53.2 µM (inactive)
same,GI50,M14,51.9 µM (inactive)
same,GI50,MCF7,37.5 µM (inactive)
same,GI50,MDA-MB-231,> 100 µM (inactive)
same,GI50,MDA-MB-435,> 100 µM (inactive)
same,GI50,MDA-N,91.6 µM (inactive)
same,GI50,MOLT-4,69.7 µM (inactive)
same,GI50,Malme-3M,> 100 µM (inactive)
same,GI50,NCI-H23,74.8 µM (inactive)
same,GI50,NCI-H460,29.2 µM (inactive)
same,GI50,NCI-H522,37.2 µM (inactive)
same,GI50,NCI/ADR-RES,> 100 µM (inactive)
same,GI50,OVCAR-3,57.4 µM (inactive)
same,GI50,OVCAR-4,57.8 µM (inactive)
same,GI50,OVCAR-5,> 100 µM (inactive)
same,GI50,OVCAR-8,56.6 µM (inactive)
same,GI50,PC-3,76.2 µM (inactive)
same,GI50,RPMI-8226,45.6 µM (inactive)
same,GI50,RXF 393,24 µM (inactive)
same,GI50,SF-268,70.5 µM (inactive)
same,GI50,SF-295,34.2 µM (inactive)
same,GI50,SF-539,50.9 µM (inactive)
same,GI50,SK-MEL-28,> 100 µM (inactive)
same,GI50,SK-MEL-2,86.5 µM (inactive)
same,GI50,SK-MEL-5,> 100 µM (inactive)
same,GI50,SK-OV-3,68.2 µM (inactive)
same,GI50,SN12C,54.1 µM (inactive)
same,GI50,SNB-19,95.1 µM (inactive)
same,GI50,SNB-75,27.7 µM (inactive)
same,GI50,SW-620,14.5 µM (inactive)
same,GI50,T47D,> 100 µM (inactive)
same,GI50,TK-10,> 100 µM (inactive)
same,GI50,U-251,28.6 µM (inactive)
same,GI50,UACC-257,> 100 µM (inactive)
same,GI50,UACC-62,> 100 µM (inactive)
same,GI50,UO-31,70.1 µM (inactive)
Cc1cc(C)c(S(=O)(=O)N(CCCCCCN)OCCCN)c(C)c1,GI50,786-0,16 µM (inactive)
same,GI50,A549,70 µM (inactive)
same,GI50,ACHN,17.2 µM (inactive)
same,GI50,BT-549,17.8 µM (inactive)
same,GI50,CCRF-CEM,16.1 µM (inactive)
same,GI50,COLO 205,17.3 µM (inactive)
same,GI50,DU-145,16.1 µM (inactive)
same,GI50,EKVX,15.3 µM (inactive)
same,GI50,HCC 2998,16.6 µM (inactive)
same,GI50,HCT-116,17.5 µM (inactive)
same,GI50,HCT-15,17.7 µM
same,GI50,HL-60,12.3 µM (inactive)
same,GI50,HOP-62,20.9 µM (inactive)
same,GI50,HOP-92,15.7 µM (inactive)
same,GI50,HT-29,15.1 µM (inactive)
same,GI50,Hs-578T,13.8 µM (inactive)
same,GI50,IGROV-1,13.9 µM (inactive)
same,GI50,K562,26.4 µM (inactive)
same,GI50,KM12,15.1 µM (inactive)
same,GI50,LOX IMVI,12.2 µM (inactive)
same,GI50,M14,20.9 µM (inactive)
same,GI50,MCF7,19.8 µM (inactive)
same,GI50,MDA-MB-231,10.7 µM (inactive)
same,GI50,MDA-MB-435,62.1 µM (inactive)
same,GI50,MDA-N,17.5 µM (inactive)
same,GI50,MOLT-4,15.3 µM (inactive)
same,GI50,Malme-3M,10.3 µM (inactive)
same,GI50,NCI-H226,19.6 µM (inactive)
same,GI50,NCI-H23,17.1 µM (inactive)
same,GI50,NCI-H460,15.6 µM (inactive)
same,GI50,NCI-H522,13 µM (inactive)
same,GI50,NCI/ADR-RES,24.3 µM (inactive)
same,GI50,OVCAR-3,19.9 µM (inactive)
same,GI50,OVCAR-4,20.2 µM (inactive)
same,GI50,OVCAR-5,21.7 µM (inactive)
same,GI50,OVCAR-8,14 µM (inactive)
same,GI50,PC-3,14.6 µM (inactive)
same,GI50,RPMI-8226,31.6 µM (inactive)
same,GI50,SF-268,16.5 µM (inactive)
same,GI50,SF-295,18.5 µM (inactive)
same,GI50,SF-539,18.2 µM (inactive)
same,GI50,SK-MEL-28,18.1 µM (inactive)
same,GI50,SK-MEL-2,20.2 µM (inactive)
same,GI50,SK-MEL-5,19.2 µM (inactive)
same,GI50,SK-OV-3,18.4 µM (inactive)
same,GI50,SN12C,19.6 µM (inactive)
same,GI50,SNB-19,19.3 µM (inactive)
same,GI50,SNB-75,10.3 µM (inactive)
same,GI50,SW-620,17.9 µM (inactive)
same,GI50,T47D,17.7 µM (inactive)
same,GI50,TK-10,15.4 µM (inactive)
same,GI50,U-251,16.2 µM (inactive)
same,GI50,UACC-257,15.8 µM (inactive)
same,GI50,UACC-62,19.5 µM (inactive)
same,GI50,UO-31,19.5 µM (inactive)
